Columns and labels:
[1] = Specific surface area by Brunauer-Emmett-Teller (B.E.T.) nitrogen absorption; type: physicochemical; settings: crystal particles, measured by B.E.T.
Description: Specific surface area is defined in units of square meters per gram (m2/g). It is usually measured by nitrogen absorption analysis. In this analysis, nitrogen is absorbed on the surface of the substance. The amount of the absorbed nitrogen (as measured during the absorption or the subsequent desorption process) is related to the surface area via a formula known as the Brunauer Emmet Teller (B.E.T.) formula.

[2] = Particle size distribution by laser diffraction (Malvern Mastersizer); type: physicochemical; settings: crystal particles obtained by the processes herein described
Description: As used herein, the phrase, “particle size distribution (PSD)” means the cumulative volume size distribution of equivalent spherical diameters as determined by laser diffraction at 1 bar dispersive pressure in a Sympatec Helos equipment. d10, as used herein is defined as the particle size at which the cumulative percentage undersize is 10 (i.e. the bottom 10% of particles are less than or equal to the stated size). d50 means the median particle size and d90 is defined as the particle size at which the cumulative percentage undersize is 90 (i.e. the bottom 90% of particles are less than or equal to the stated size). The particle size of eslicarbazepine acetate was measured under following conditions. [table] In accordance with the invention, the size distribution of eslicarbazepine acetate particles is determined by laser diffraction. In the present invention, the method in the determination of the size of eslicarbazepine acetate particles employed a Malvern Mastersizer laser diffraction instrument. Samples of the eslicarbazepine acetate were suspended in hexane containing a surfactant, 1% Tween80®. The suspensions were mixed and then sonicated for 120 seconds to thoroughly disperse the eslicarbazepine acetate particles. The dispersion was then circulated in the flow cell of the Malvern Mastersizer for two minutes before particle size measurements were taken.

Specific surface area [1]: about 1.37 m^2/g | Particle size distribution d 10 [2]: 5.421 μm | Particle size distribution d 50 (median particle size) [2]: 19.780 μm | Particle size distribution d 90 [2]: 168.686 μm
Compound: CC(=O)O[C@H]1Cc2ccccc2N(C(N)=O)c2ccccc21 [eslicarbazepine acetate, (S)-(−)-10-(acetyloxy)-10,11-dihydro-5H-dibenz[b,f]-azepine-5-carboxamide]

— patent US20120022047A1, “PROCESS FOR THE PURIFICATION OF ESLICARBAZEPINE ACETATE” (GLENMARK GENERICS LTD, priority 2009, published 2012)
